Test [1] deals with E. coli RNA polymerase σ70 holoenzyme (Escherichia coli (strain K12), UniProt P0A8T7+P0A8V2). Nature of the test: Fluorescence-detected RNA polymerase assay, E. coli RNAP. The class given is biochemical. The protocol: (§1) Fluorescence-detected RNA polymerase assays with E. coli RNA polymerase were performed by a modification of the procedure of Kuhlman et al., 2004 [Kuhlman, P., Duff, H. & Galant, A. (2004) A fluorescence-based assay for multisubunit DNA-dependent RNA polymerases. Anal. Biochem. 324, 183-190]. Reaction mixtures contained (20 μl): 0-100 nM test compound, 75 nM E. coli RNA polymerase σ^70 holoenzyme, 20 nM 384 bp DNA fragment containing the bacteriophage T4 N25 promoter, 100 μM ATP, 100 μM GTP, 100 μM UTP, 100 μM CTP, 50 mM Tris-HCl, pH 8.0, 100 mM KCl, 10 mM MgCl2, 1 mM DTT, 10 μg/ml bovine serum albumin, and 5.5% glycerol. Reaction components other than DNA and NTPs were pre-incubated for 10 min at 37° C. Reactions were carried out by addition of DNA and incubation for 5 min at 37° C., followed by addition of NTPs and incubation for 60 min at 37° C. DNA was removed by addition of 1 μl 5 mM CaCl2 and 2 U DNaseI (Ambion, Inc.), followed by incubation for 90 min at 37° C. RNA was quantified by addition of 100 μl RiboGreen RNA Quantitation Reagent (Invitrogen, Inc.; 1:500 dilution in Tris-HCl, pH 8.0, 1 mM EDTA), followed by incubation for 10 min at 25° C., followed by measurement of fluorescence intensity [excitation wavelength=485 nm and emission wavelength=535 nm; QuantaMaster QM1 spectrofluorometer (PTI, Inc.)]. IC50 is defined as the concentration of inhibitor resulting in 50% inhibition of RNA polymerase activity.

Test [2] deals with M. tuberculosis RNA polymerase core enzyme + σA (Mycobacterium tuberculosis (strain ATCC 25618 / H37Rv), UniProt P9WGY7+P9WGY9). Nature of the test: Fluorescence-detected RNA polymerase assay, M. tuberculosis RNAP. The class given is biochemical. The protocol:
as §1
Fluorescence-detected RNA polymerase assays with M. tuberculosis RNA polymerase were performed as in Example 21.1, using reaction mixtures containing (20 μl): 0-100 nM test compound, 75 nM M. tuberculosis RNA polymerase core enzyme, 300 nM M. tuberculosis σ^A, 20 nM 384 bp DNA fragment containing the bacteriophage T4 N25 promoter, 100 μM ATP, 100 μM GTP, 100 μM UTP, 100 μM CTP, 40 mM Tris-HCl, pH 8.0, 80 mM NaCl, 5 mM MgCl2, 2.5 mM DTT, and 12.7% glycerol. IC50 is defined as the concentration of inhibitor resulting in 50% inhibition of RNA polymerase activity.

Test [3] deals with S. aureus RNA polymerase core enzyme + σA (Staphylococcus aureus (strain NCTC 8325 / PS 47), UniProt P47768+Q2G0N5). The experiment in a line: Fluorescence-detected RNA polymerase assay, S. aureus RNAP. The class given is biochemical. The protocol:
as §1
Fluorescence-detected RNA polymerase assays with S. aureus RNA polymerase were performed as in Example 21.1, using reaction mixtures containing (20 μl): 0-100 nM test compound, 75 nM S. aureus RNA polymerase core enzyme, 300 nM S. aureus σ^A, 20 nM 384 bp DNA fragment containing the bacteriophage T4 N25 promoter, 100 μM ATP, 100 μM GTP, 100 μM UTP, 100 μM CTP, 40 mM Tris-HCl, pH 8.0, 80 mM NaCl, 5 mM MgCl2, 2.5 mM DTT, and 12.7% glycerol. IC50 is defined as the concentration of inhibitor resulting in 50% inhibition of RNA polymerase activity.

In test [4] the test system is Bacillus anthracis Vollum-1b. The experiment in a line: microbe, parasite or virus in culture. It counts as cell-based. The conditions noted are these: VOLLUM1B, read-out: MIC B. anthracis Vollum-1b.
The test system of test [5] is Francisella tularensis SCHU4. The experiment in a line: microbe, parasite or virus in culture. The class given is cell-based. As to conditions: SCHU4, read-out: MIC F. tularensis SCHU4.
For test [6], the system named is Mycobacterium tuberculosis H37Rv. The experiment in a line: MIC, microplate Alamar Blue assay. The conditions noted are these: read-out: MIC M. tuberculosis H37Rv.
Test [7] has as its system Staphylococcus aureus ATCC 12600. Nature of the test: MIC, spiral gradient endpoint assay. As to conditions: ATCC12600, read-out: MIC S. aureus 12600.
In test [8] the test system is Staphylococcus aureus ATCC 13709 MSSA. The experiment in a line: MIC, spiral gradient endpoint assay. The conditions noted are these: read-out: MIC S. aureus 13709.
In test [9] the test system is Staphylococcus aureus BAA-1707 MRSA (MW2). The experiment in a line: MIC, spiral gradient endpoint assay. As to conditions: read-out: MIC S. aureus MRSA 1707.
The test system of test [10] is Staphylococcus aureus BAA-1717 MRSA (USA300). The experiment in a line: MIC, spiral gradient endpoint assay. The conditions noted are these: read-out: MIC S. aureus MRSA 1717.
For test [11], the system named is Enterococcus faecalis ATCC 19433. The experiment in a line: MIC, spiral gradient endpoint assay. The conditions noted are these: ATCC19433, read-out: MIC E. faecalis 19433.
For test [12], the system named is Enterococcus faecium ATCC 19434. Nature of the test: MIC, spiral gradient endpoint assay. As to conditions: ATCC19434, read-out: MIC E. faecium 19434.
For test [13], the system named is Escherichia coli D21f2tolC. Nature of the test: MIC, spiral gradient endpoint assay. The conditions noted are these: read-out: MIC E. coli D21f2tolC.
In test [14] the test system is Streptococcus pneumoniae ATCC 49619. The experiment in a line: MIC, spiral gradient endpoint assay (GC II agar, 5% CO2). As to conditions: ATCC49619, read-out: MIC S. pneumoniae 49619.
Test [15] deals with Streptococcus pyogenes ATCC 12344. Described as above. The conditions noted are these: ATCC12344, read-out: MIC S. pyogenes 12344.
Test [16] concerns Moraxella catarrhalis ATCC 25238. Described as above. As to conditions: ATCC25238, read-out: MIC M. catarrhalis 25238.

The text below walks through data of patent US10800725B2, “Arylpropionyl-triketone antibacterial agents” (priority 2010, dated 2020).

SMILES strings stand for the structures. pIC50: −log10 of the molar value. In brackets after ≈: the same amount, converted by molar mass.

Regarding `CC(C)CCC1=C(O)C(CCC(C)C)(CCC(C)C)C(=O)C(C(=O)C(C)Cc2ccccc2)=C1O` (stereo not shown) [Compound 20, 3,5-dihydroxy-2-(2-methyl-3-phenylpropanoyl)-4,6,6-triisopentylcyclohexa-2,4-dienone], the pIC50 in test [1] is 4.92; in test [2], 5.14; in test [3], 4.89. In addition, the MIC in test [4] came to 0.098 µg/mL (≈ 0.203 µM); in test [5] it was 0.78 µg/mL (≈ 1.62 µM); in [6], 50 µg/mL (≈ 104 µM); in test [7] it was 0.4 µg/mL (≈ 0.829 µM); in test [8], 0.7 µg/mL (≈ 1.45 µM); in [9] it was 0.7 µg/mL (≈ 1.45 µM). The MIC in test [10] was found to be 0.7 µg/mL (≈ 1.45 µM); in test [11], 0.7 µg/mL (≈ 1.45 µM); in [12], 0.6 µg/mL (≈ 1.24 µM); in [13], 6 µg/mL (≈ 12.4 µM); in test [14] it was 19 µg/mL (≈ 39.4 µM); in test [15], 15 µg/mL (≈ 31.1 µM). Further, in test [16], the MIC is 24 µg/mL (≈ 49.7 µM).
